Laboratory results as given in ChEMBL document CHEMBL6083271 (J Med Chem, 2024).
Active and inactive are the calls of the source. The rule behind the calls is not given here.

Experiments:
RS4-11 [1] = test: Upregulation of p53 level in human RS4;11 cells harbouring wild type p53 at 10 to 300 nM measured after 2 hrs by Western blot analysis; format: functional, cell-based; conditions: dose 10-300 nM
RS4-11 [2] = test: Downregulation of MDM2 level in human RS4;11 cells harbouring wild type p53 at 10 to 300 nM measured after 2 hrs by Western blot analysis; format: functional, cell-based; conditions: dose 10-300 nM
RS4-11 [3] = test: Antiproliferative activity against human RS4;11 cells harbouring p53 wild type assessed as inhibition of cell growth measured after 4 days by WST-8 assay; format: functional, cell-based; conditions: RS4-11, 96 h
RS4-11 [4] = test: Antiproliferative activity against human RS4;11 cells harbouring p53 mutant assessed as inhibition of cell growth measured after 4 days by WST-8 assay; format: functional, cell-based; conditions: RS4-11, 96 h
RS4-11 [5] = test: Antitumor activity against human RS4;11 cells xenografted in SCID mouse model assessed as tumor regression at 50 mg/kg, iv qd administered every other for 2 weeks by caliper method relative to control; format: functional
RS4-11 [6] = test: Antiproliferative activity against human RS4;11 cells assessed as inhibition of cell growth measured after 4 days by WST-8 assay; format: functional, cell-based; conditions: RS4-11, 96 h
MV4-11 = test: Antiproliferative activity against human MV4-11 cells assessed as inhibition of cell growth measured after 4 days by WST-8 assay; format: functional, cell-based; conditions: MV4-11, 96 h
RS4-11 [7] = test: Antitumor activity against human RS4;11 cells xenografted in female NOD-SCID mouse model assessed as tumor regression at 50 mg/kg, iv administered every other day for 2 weeks by vernier method relative to control; format: functional
[8] = Toxicity in female NOD-SCID mouse assessed as effect on body weight at 50 mg/kg, iv qd; format: organism-based; conditions: in vivo
[9] = Toxicity in SCID mouse at 50 mg/kg, iv; format: organism-based; conditions: in vivo

IC50 (RS4-11 [3]) [nM]	IC50 (RS4-11 [4]) [nM]	IC50 (RS4-11 [6]) [nM]	IC50 (MV4-11) [nM]	SMILES	Activity (RS4-11 [1])	Activity (RS4-11 [2])	Activity (RS4-11 [5]) [%]	Activity (RS4-11 [7]) [%]	Activity [8]	Activity [9]
				O=C(O)c1ccc(NC(=O)[C@@H]2NC3(CCCCC3)[C@@]3(C(=O)Nc4cc(Cl)ccc43)[C@H]2c2cccc(Cl)c2F)cc1	Active	inactive				
4	> 1000	2	7	O=C1CCC(N2Cc3c(C#CCCCNC(=O)c4ccc(NC(=O)[C@@H]5NC6(CCCCC6)[C@@]6(C(=O)Nc7cc(Cl)ccc76)[C@H]5c5cccc(Cl)c5F)cc4)cccc3C2=O)C(=O)N1 (some centres not stated)			100	100	Non-toxic	
6	180			O=C1CCC(N2Cc3c(NCc4cn(CCCNC(=O)c5ccc(NC(=O)[C@@H]6NC7(CCCCC7)[C@@]7(C(=O)Nc8cc(Cl)ccc87)[C@H]6c6cccc(Cl)c6F)cc5)cn4)cccc3C2=O)C(=O)N1 (some centres not stated)						Toxic
